# “And” between values parts separate entries of the source, which are not always exact repeats. Equal entries are not always repeated.
# Target: human mGluR5A (Homo sapiens, UniProt P41594)
# Assay: mGluR5 FLIPR Assay
# Format: cell-based
# Conditions: positive modulator activity; HEK293 (ZF) cells with human mGluR5A and rat GLAST; Ca++ response to ~EC10 glutamate
# Sequence of human mGluR5A (P41594 21-1180 isoform P41594-2): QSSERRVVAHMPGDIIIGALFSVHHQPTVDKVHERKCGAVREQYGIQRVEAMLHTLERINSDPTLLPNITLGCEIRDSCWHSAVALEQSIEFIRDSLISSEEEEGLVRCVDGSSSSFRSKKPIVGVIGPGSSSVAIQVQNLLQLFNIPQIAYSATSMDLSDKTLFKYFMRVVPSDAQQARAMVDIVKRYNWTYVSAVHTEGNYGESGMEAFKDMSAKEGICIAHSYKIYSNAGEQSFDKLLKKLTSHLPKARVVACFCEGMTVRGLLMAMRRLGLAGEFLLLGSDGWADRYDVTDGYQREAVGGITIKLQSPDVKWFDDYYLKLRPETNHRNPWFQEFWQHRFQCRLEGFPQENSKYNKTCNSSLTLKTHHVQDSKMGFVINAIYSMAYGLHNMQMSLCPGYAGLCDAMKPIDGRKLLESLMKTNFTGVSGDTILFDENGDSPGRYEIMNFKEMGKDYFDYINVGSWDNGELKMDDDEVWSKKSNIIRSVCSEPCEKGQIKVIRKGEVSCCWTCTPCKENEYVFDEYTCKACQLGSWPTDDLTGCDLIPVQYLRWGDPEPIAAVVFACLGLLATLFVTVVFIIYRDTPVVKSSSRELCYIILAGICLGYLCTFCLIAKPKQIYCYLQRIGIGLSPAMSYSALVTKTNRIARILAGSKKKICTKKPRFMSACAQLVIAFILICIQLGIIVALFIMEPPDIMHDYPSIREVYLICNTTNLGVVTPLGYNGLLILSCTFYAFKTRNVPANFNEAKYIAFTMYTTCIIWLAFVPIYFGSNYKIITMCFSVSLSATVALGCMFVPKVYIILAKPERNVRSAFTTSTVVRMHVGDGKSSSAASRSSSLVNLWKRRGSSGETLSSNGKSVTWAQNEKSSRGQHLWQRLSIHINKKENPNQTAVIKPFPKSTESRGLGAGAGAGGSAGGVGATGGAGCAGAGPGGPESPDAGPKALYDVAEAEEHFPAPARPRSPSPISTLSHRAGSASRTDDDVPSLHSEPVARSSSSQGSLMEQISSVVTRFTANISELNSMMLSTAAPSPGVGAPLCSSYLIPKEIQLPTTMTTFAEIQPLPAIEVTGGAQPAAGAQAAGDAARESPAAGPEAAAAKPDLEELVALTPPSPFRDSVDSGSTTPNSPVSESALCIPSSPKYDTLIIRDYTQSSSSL
row,SMILES,EC50
1,"O=C1N[C@H](c2cncc(C#Cc3ccncn3)c2)[C@@H](c2cc(F)ccc2F)O1 [Example 394, (4R,5R)-5-(2,5-difluorophenyl)-4-(5-(pyrimidin-4-ylethynyl)pyridin-3-yl)oxazolidin-2-one]",> 1 µM
2,"O=C1N[C@H](c2cncc(C#Cc3cncnc3)c2)[C@@H](c2cc(F)ccc2F)O1 [Example 395, (4R,5R)-5-(2,5-difluorophenyl)-4-(5-(pyrimidin-5-ylethynyl)pyridin-3-yl)oxazolidin-2-one]",0.1 to 1 µM
3,"O=C1N[C@H](c2cncc(C#Cc3cnccn3)c2)[C@@H](c2cc(F)ccc2F)O1 [Example 396, (4R,5R)-5-(2,5-difluorophenyl)-4-(5-(pyrazin-2-ylethynyl)pyridin-3-yl)oxazolidin-2-one]",< 0.1 µM
4,"O=C1N[C@H](c2cncc(C#Cc3cnccn3)c2)[C@@H](c2cccc(F)c2)O1 [Example 397, (4R,5R)-5-(3-Fluorophenyl)-4-(5-(pyrazin-2-ylethynyl)pyridin-3-yl)oxazolidin-2-one]",< 0.1 µM
5,"O=C1N[C@H](c2cncc(C#Cc3cncnc3)c2)[C@@H](c2cccc(F)c2)O1 [Example 398, (4R,5R)-5-(3-fluorophenyl)-4-(5-(pyrimidin-5-ylethynyl)pyridin-3-yl)oxazolidin-2-one]",0.1 to 1 µM and 0.141 µM
6,"O=C1N[C@H](c2cncc(C#Cc3ccccc3Cl)c2)[C@@H](c2cccc(F)c2)O1 [Example 399, (4R,5R)-4-(5-((2-chlorophenyl)ethynyl)pyridin-3-yl)-5-(3-fluorophenyl)oxazolidin-2-one]",< 0.1 µM
7,"O=C1N[C@H](c2cncc(C#Cc3cccc(F)c3)c2)[C@@H](c2cccc(F)c2)O1 [Example 400, (4R,5R)-5-(3-fluorophenyl)-4-(5-((3-fluorophenyl)ethynyl)pyridin-3-yl)oxazolidin-2-one]",< 0.1 µM

# The remaining lines, values ahead:
row,EC50,SMILES
1,< 0.1 µM,"Cc1cccc(C#Cc2cncc([C@H]3NC(=O)O[C@@H]3c3cccc(F)c3)c2)c1 [Example 401, (4R,5R)-5-(3-fluorophenyl)-4-(5-(m-tolylethynyl)pyridin-3-yl)oxazolidin-2-one]"
2,> 3 µM,"O=C1N[C@H](c2cncc(C#Cc3cccc(C(F)(F)F)c3)c2)[C@@H](c2cccc(F)c2)O1 [Example 402, (4R,5R)-5-(3-fluorophenyl)-4-(5((3-(trifluoromethyl)phenyl)ethynyl)pyridin-3-yl)oxazolidin-2-one]"
3,< 0.1 µM,"O=C1N[C@H](c2cncc(C#Cc3cccc(Cl)c3)c2)[C@@H](c2cccc(F)c2)O1 [Example 403, (4R,5R)-4-(5-((3-chlorophenyl)ethynyl)pyridin-3-y1)-5-(3-fluorophenyl)oxazolidin-2-one]"
4,< 0.1 µM,"O=C1N[C@H](c2cncc(C#Cc3ccccc3)c2)[C@@H](c2ccccc2F)O1 [Example 404, (4R,5R)-5-(2-Fluorophenyl)-4-(5-(phenylethynyl)pyridin-3-yl)oxazolidin-2-one]"
5,0.1 to 1 µM,"O=C1N[C@H](c2ccc(C#Cc3ccccc3)nc2)[C@@H](c2cccc(F)c2)O1 [Example 408, (4R,5R)-5-(3-Fluorophenyl)-4-(6-(phenylethynyl)pyridin-3-yl)oxazolidin-2-one]"
6,0.1 to 1 µM,"O=C1N[C@@H](c2ccc(C#Cc3ccccc3)cn2)[C@H](c2cccc(F)c2)O1 [Example 409, (4S,5S)-5-(3-Fluorophenyl)-4-(5-(phenylethynyl)pyridin-2-yl)oxazolidin-2-one]"
7,> 1 µM,"O=C1N[C@H](c2ccc(C#Cc3ccccc3)cn2)[C@@H](c2cccc(F)c2)O1 [Example 410, (4R,5R)-5-(3-fluorophenyl)-4-(5-(phenylethynyl)pyridin-2-yl)oxazolidin-2-one]"

# From patent USRE49735E1 (BRISTOL-MYERS SQUIBB COMPANY, priority 2010, dated 2023)
